From ChEMBL document CHEMBL4152251, “Lactam hybrid analogues of solonamide B and autoinducing peptides as potent S. aureus AgrC antagonists” (Eur J Med Chem, 2018)
Activity calls are given as the source filed them. No cut-off for these calls is given here. Bridge positions count the residues as written; N and C are the ends. Square brackets hold non-standard residues; d marks the D form. Peptide text beside a SMILES is read from it. * marks the point of attachment. Decanoyl(3,6,9-trioxa) = COCCOCCOCC(=O)*; Decanoyl = CCCCCCCCCC(=O)*; Heptanoyl = CCCCCCC(=O)*; Orn = NCCC[C@H](N)C(=O)O; Dab = NCC[C@H](N)C(=O)O; Dap = NC[C@H](N)C(=O)O

Key:
[1] = biological target: T1, Receptor-histidine kinase AgrC (Staphylococcus aureus) (UniProt O07911); assay: Inhibition of AIP-stimulated quorum sensing system AgrC activation in Staphylococcus aureus RN10829 harboring P3:blaZ fusion assessed as reduction in beta-lactamse activity at 5 ug/ml preincubated with organism followed by AIP addition measured after 45 mins by nitrocefin hydrolysis assay
T1 sequence (whole entry): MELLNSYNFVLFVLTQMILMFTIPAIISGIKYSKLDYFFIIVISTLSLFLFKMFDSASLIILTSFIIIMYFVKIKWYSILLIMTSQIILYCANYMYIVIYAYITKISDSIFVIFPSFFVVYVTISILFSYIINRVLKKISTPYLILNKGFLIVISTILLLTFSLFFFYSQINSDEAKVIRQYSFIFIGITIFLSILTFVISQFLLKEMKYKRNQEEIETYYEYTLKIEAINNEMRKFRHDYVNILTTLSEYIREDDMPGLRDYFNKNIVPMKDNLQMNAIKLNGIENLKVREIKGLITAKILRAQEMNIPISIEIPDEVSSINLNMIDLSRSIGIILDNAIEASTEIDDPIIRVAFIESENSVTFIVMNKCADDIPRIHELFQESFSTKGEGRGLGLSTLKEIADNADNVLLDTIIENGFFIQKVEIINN

[2] = biological target: T2, Receptor-histidine kinase AgrC (Staphylococcus aureus, UniProt O07911); assay: Inhibition of AIP-stimulated quorum sensing system AgrC activation in Staphylococcus aureus RN10829 harboring P3:blaZ fusion assessed as reduction in beta-lactamse activity preincubated with organism followed by AIP addition measured after 45 mins by nitrocefin hydrolysis assay
T2 sequence (O07911 whole entry): T1 sequence (whole entry)

| Structure (SMILES) | inhibition [1] | IC50 [2] |
| --- | --- | --- |
| CCCCCCC(=O)N[C@H]1CNC(=O)[C@H](CC(C)C)NC(=O)[C@@H](C)NC(=O)[C@@H](CC(C)C)NC(=O)[C@H](Cc2ccccc2)NC1=O | inactive | – |
| CCCCCCC(=O)N[C@H]1CCNC(=O)[C@H](CC(C)C)NC(=O)[C@H](C)NC(=O)[C@H](CC(C)C)NC(=O)[C@H](Cc2ccccc2)NC1=O (Heptanoyl-[Dab]FLAL; lactam 1-C) | inactive | – |
| CCCCCCCCCCCC(=O)N[C@@H]1CNC(=O)[C@@H](CC(C)C)NC(=O)[C@@H](C)NC(=O)[C@@H](CC(C)C)NC(=O)[C@@H](Cc2ccccc2)NC1=O | Active | – |
| CCCCCCC(=O)N[C@H]1CCCNC(=O)[C@H](CC(C)C)NC(=O)[C@H](C)NC(=O)[C@H](CC(C)C)NC(=O)[C@H](Cc2ccccc2)NC1=O (Heptanoyl-[Orn]FLAL; lactam 1-C) | inactive | – |
| COCCOCCOCC(=O)N[C@H]1CNC(=O)[C@H](CC(C)C)NC(=O)[C@H](C)NC(=O)[C@H](CC(C)C)NC(=O)[C@H](Cc2ccccc2)NC1=O ({Decanoyl(3,6,9-trioxa)}-[Dap]FLAL; lactam 1-C) | inactive | – |
| CCCCCCC(=O)N[C@@H]1CNC(=O)[C@@H](CC(C)C)NC(=O)[C@@H](C)NC(=O)[C@@H](CC(C)C)NC(=O)[C@@H](CCc2ccccc2)NC1=O | inactive | – |
| CCCCCCC(=O)N[C@@H]1CNC(=O)[C@@H](Cc2ccccc2)NC(=O)[C@@H](C)NC(=O)[C@@H](CC(C)C)NC(=O)[C@@H](CC(C)C)NC1=O | inactive | – |
| CC(=O)N[C@H]1CNC(=O)[C@H](CC(C)C)NC(=O)[C@H](C)NC(=O)[C@H](CC(C)C)NC(=O)[C@H](Cc2ccccc2)NC1=O (Ac-[Dap]FLAL; lactam 1-C) | inactive | – |
| CCCCCCC(=O)N[C@@H]1CNC(=O)[C@@H](CC(C)C)NC(=O)[C@@H](CC(C)C)NC(=O)[C@@H](CC(C)C)NC(=O)[C@@H](Cc2ccccc2)NC1=O | inactive | – |
| CCCCCCC(=O)N[C@@H]1CNC(=O)[C@@H](CC(C)C)NC(=O)[C@@H](C)NC(=O)[C@@H](CC(C)C)NC(=O)[C@@H](C)NC1=O | Active | – |
| CCCCCCC(=O)N[C@@H]1CNC(=O)[C@@H](CC(C)C)NC(=O)[C@@H](C)NC(=O)[C@@H](CCC(C)C)NC(=O)[C@@H](Cc2ccccc2)NC1=O | Active | 609 nM |
| CCCCCCC(=O)N[C@H]1CNC(=O)[C@H](CC(C)C)NC(=O)[C@H](C)NC(=O)[C@H](CC(C)C)NC(=O)[C@H](Cc2ccccc2)NC1=O | Active | 19100 nM |
| CCCCCCC(=O)N[C@@H]1CNC(=O)[C@@H](CC(C)C)NC(=O)[C@@H](C)NC(=O)[C@@H](Cc2ccccc2)NC(=O)[C@@H](Cc2ccccc2)NC1=O | Active | 739 nM |
| CCCCCCC(=O)N[C@@H]1CNC(=O)[C@@H](CC(C)C)NC(=O)[C@@H](C)NC(=O)[C@@H](CC(C)C)NC(=O)[C@@H](Cc2cccc3ccccc23)NC1=O | inactive | – |
| CCCCCCCC(=O)N[C@@H]1CNC(=O)[C@@H](CC(C)C)NC(=O)[C@@H](C)NC(=O)[C@@H](CC(C)C)NC(=O)[C@@H](Cc2ccccc2)NC1=O | Active | 457 nM |
| CCCCCCC(=O)N[C@@H]1CNC(=O)[C@@H](CC(C)C)NC(=O)[C@H](C)NC(=O)[C@H](CC(C)C)NC(=O)[C@@H](Cc2ccccc2)NC1=O | inactive | – |
| CCCCCCC(=O)N[C@@H]1CNC(=O)[C@@H](CC(C)C)NC(=O)[C@@H](C)NC(=O)[C@@H](CC(C)C)NC(=O)[C@@H](Cc2c[nH]c3ccccc23)NC1=O | inactive | – |
| CCCCCC(=O)N[C@@H]1CNC(=O)[C@@H](CC(C)C)NC(=O)[C@@H](C)NC(=O)[C@@H](CC(C)C)NC(=O)[C@@H](Cc2ccccc2)NC1=O | Active | 1430 nM |
| CCCCCCC(=O)N[C@H]1CNC(=O)[C@H](Cc2ccccc2)NC(=O)[C@H](C)NC(=O)[C@H](CC(C)C)NC(=O)[C@H](CC(C)C)NC1=O | Active | – |
| CCCCCCC(=O)N[C@@H]1CNC(=O)[C@@H](C)NC(=O)[C@@H](C)NC(=O)[C@@H](CC(C)C)NC(=O)[C@@H](Cc2ccccc2)NC1=O | Active | 69100 nM |
| CCCCCCCCCC(=O)N[C@H]1CNC(=O)[C@H](CC(C)C)NC(=O)[C@H](C)NC(=O)[C@H](CC(C)C)NC(=O)[C@H](Cc2ccccc2)NC1=O (Decanoyl-[Dap]FLAL; lactam 1-C) | Active | – |
| CCCCCCC(=O)N[C@@H]1CNC(=O)[C@@H](CCC(C)C)NC(=O)[C@@H](C)NC(=O)[C@@H](CC(C)C)NC(=O)[C@@H](Cc2ccccc2)NC1=O | Active | 913 nM |
| CCCCCCC(=O)N[C@@H]1CNC(=O)[C@@H](CC(C)C)NC(=O)[C@@H](C)NC(=O)[C@@H](C)NC(=O)[C@@H](Cc2ccccc2)NC1=O | Active | – |
| CCCCCCC(=O)N[C@H]1CCCCNC(=O)[C@H](CC(C)C)NC(=O)[C@H](C)NC(=O)[C@H](CC(C)C)NC(=O)[C@H](Cc2ccccc2)NC1=O (Heptanoyl-KFLAL; lactam 1-C) | inactive | – |
| CCCCCCC(=O)N[C@@H]1CNC(=O)[C@@H](CC(C)C)NC(=O)CNC(=O)[C@@H](CC(C)C)NC(=O)[C@@H](Cc2ccccc2)NC1=O | inactive | – |
| CC(=O)NCC(=O)NCC(=O)NCC(=O)N[C@H]1CNC(=O)[C@H](CC(C)C)NC(=O)[C@H](C)NC(=O)[C@H](CC(C)C)NC(=O)[C@H](Cc2ccccc2)NC1=O (Ac-GGG[Dap]FLAL; lactam 4-C) | inactive | – |
| CCCCCCC(=O)N[C@@H]1CNC(=O)[C@@H](CC(C)C)NC(=O)[C@@H](C)NC(=O)[C@@H](CC(C)C)NC(=O)[C@@H](Cc2ccccc2)NC1=O | Active | 622 nM |
